Assay results published in US5614554A, “Reverse transcriptase inhibitors and antiviral agents” (Nippon Flour Mills Co., Ltd., priority 1992, dated 1997).
Entries after “also recorded” stand apart in the source; their conditions may differ. Like-named read-outs stand apart in the source and are kept apart here.

Tests used:
mice leukemia cell L1210 = experiment: Influence on the proliferation of mice leukemia cell L1210; assay type: cell-based; conditions: 250 μg/ml, cultured for four days, compared with compound-free control
Procedure: To the culture of mice leukemia cell L1210, sodium L-tyrosine sulfate was added at the concentration of 250 μg/ml and then the mixture was cultured for four days.

male mice of ICR = experiment: Acute toxicity on mice; assay type: in vivo; conditions: intraperitoneally, 500 mg/kg, male ICR mice at age of 4 weeks
Procedure: Sodium L-tyrosine sulfate was intraperitoneally injected to male mice of ICR at age of 4 weeks at the dose of 500 mg/kg to examine an acute toxicity.

Solvent solubility = assay type: physicochemical; conditions: sulfate
[1] = biological target: reverse transcriptase derived from AMV; experiment: Reverse transcriptase inhibitory effect, AMV enzyme; assay type: biochemical, AMV (avian myeloblastosis virus); conditions: poly(A).oligo(dT)12-18, 37° C., 10 minutes
Procedure: (§1) 20 μl of reaction solution was prepared so as to comprise 50 mM of Tris-hydrochloric acid buffer solution (pH 8.5), 40 mM of KCl, 6 mM of MgCl2, 1 mM of dithiothreitol, 50 μg/ml of poly(A). oligo (dT)12-18, [α^-32 P] deoxythymidine triphosphate, reverse transcriptase and sodium L-tyrosine sulfate.
(§2) After the reaction solution was incubated at 37° C. for 10 minutes, the reaction solution was deposited on DE 81 filter (available from Whatman). The filter was then washed thoroughly with 5% aqueous solution of Na2 HPO4 and subsequently with water, ethanol and diethyl ether. Radiation of the filter was examined by scintillation counter and then the concentration which inhibits 50% of reverse transcriptase activity (IC50) was calculated.
(§3) The reverse transcriptases used in this test were those derived from AMV (avian myeloblastosis virus) and HIV.

[2] = Influence on the proliferation of T cells (non-infected MT-4 cells); assay type: cell-based; conditions: human, read-out: Survival rate
Procedure: (§4) In this test, there were used human T cell strain MT-4 cells (Gann monogr., Vol. 28, pp219-228 (1982)), which was tranformed with HTLV-1 which is an etiogenic virus of adult T cell leukemia, and HTLV-IIIB which is one of HIV strains. This test was performed in accordance with the method of Pauwels et al. (Pauwels et al., J. Virol. Methods, Vol. 20, pp309-21 (1988)).
(§5) Immediately after MT-4 cells were infected with HTLV-IIIB [MOI (multiplicity of infection =the number of inoculated virus/the number of cells): 0.01], sodium L-tyrosine sulfate and the HTLV-IIB-infected MT-4 cells were added to a microtiter plate having 96 wells at a variety of concentrations of sodium L-tyrosine sulfate and the concentration of 2.5×10^4 cells/well, respectively. These samples were cultivated at 37° C. for five days with carbon dioxide incubator. According to MTT method, the number of survival cells was then determined by measuring an absorbance to calculate an efficiency.
As in Test Example 1, there was determined the influence of sodium L-tyrosine sulfate on the proliferation of HTLV-IIIB-non-infected MT-4 cells and the survival rate of the cells was calculated.

HTLV-IIIB = experiment: Inhibitory effect on HIV-induced cell damage in infected MT-4 cells (MTT method); assay type: cell-based; conditions: Human immunodeficiency virus 1, IIIB, MT4, 120 h, read-out: Efficiency
Procedure: as §4, §5

[3] = biological target: T1, reverse transcriptase derived from HIV (Human immunodeficiency virus type 1 group M subtype B, UniProt P04585); experiment: Reverse transcriptase inhibitory effect, HIV enzyme; assay type: biochemical
T1 construct: the reverse transcriptase derived from HIV
Procedure: as §1, §2, §3

N[C@@H](Cc1ccc(OS(=O)(=O)[O-])cc1)C(=O)O.[Na+]
Inhibitory effect on the proliferation of L1210 (mice leukemia cell L1210): hardly any inhibitory effects on the proliferation | Acute toxicity (male mice of ICR): not observed any remarkable toxicity | Solvent solubility (Solvent solubility; product of Synthesis Example 1 before purification): soluble in water, methanol and dimethyl sulfoxide; also recorded: insoluble in acetone, ethylacetate, hexane and chloroform | Solvent solubility (Solvent solubility; product of Synthesis Example 1 purified by Sephadex LH-20): soluble in water, methanol and dimethyl sulfoxide; also recorded: insoluble in acetone, ethylacetate, hexane and chloroform | IC50 (concentration which inhibits 50% of reverse transcriptase activity) [1]: 230 µg/mL

N[C@@H](Cc1ccc(OS(=O)(=O)[O-])cc1)C(=O)O.[Na+] [sulfate]
viability at 120 h ([2]; 0.32 μg/ml): 98% | viability at 120 h ([2]; 1.6 μg/ml): 97% | viability at 120 h ([2]; 8 μg/ml): 110% | viability at 120 h ([2]; 40 μg/ml): 94% | viability at 120 h ([2]; 200 μg/ml): 120% | viability at 120 h ([2]; 1000 μg/ml): 112% | inhibition at 0.32 µg/mL (HTLV-IIIB): -5% | inhibition at 1.6 µg/mL (HTLV-IIIB): 61% | inhibition at 8 µg/mL (HTLV-IIIB): 116% | inhibition at 40 µg/mL (HTLV-IIIB): 91% | inhibition at 200 µg/mL (HTLV-IIIB): 124% | inhibition at 1000 µg/mL (HTLV-IIIB): 106% | IC50 [3]: 127 µM
